The subject of one test is TFEB. Briefly: GFP-TFEB nuclear translocation (high-content screen, dose-response, confocal imaging). To be noted: for TFEB nuclear accumulation by AMPK activators: GFP-TFEB HeLa cells; for hit status in the TFEB screen overlapping with the autophagy (GFP-LC3) screen: compounds added for 4 hr, overlap with top 30 hits of autophagy screen. It is filed as cell-based, human. As for the experimental part:
GFP-TFEB HeLa cells were seeded in 384-well plates. Compounds were added for 4 hr the following day. Bafilomycin A1 (250 nM) treated cells were used as positive controls and DMSO-treated cells as negative controls. […] Images were collected using 405 nm and 488 nm laser lines with DAPI and FITC emission filters. Images were analyzed using the GE IN Cell Analyzer Workstation software. Briefly, nuclei were segmented using the Hoechst channel and the cytoplasm was segmented using the GFP channel. For each cell, the mean GFP intensity in each compartment was measured and used to calculate the nuclear to cytoplasmic (N/C) TFEB-GFP ratio. The same method as mentioned above was used to generate the top 30 compounds with highest condensed activity values and robust Z score values.
GFP-TFEB HeLa cells treated with compounds or DMSO were fixed and stained with Hoechst. Images from at least 3 different fields per sample were acquired using a 40× objective on a Zeiss confocal microscope and analyzed with ImageJ. 20-30 cells were evaluated from each image for each sample, and 3 independent experiments were performed to generate the graphed values.

In test [1] the test system is mice under fed and fast conditions. Briefly: Short-term starvation and chloroquine-induced acute hepatic lipid accumulation in mice. The note with it: overnight fast; CQ intraperitoneal; DG oral co-administration. It is filed as in vivo, mouse. As for the experimental part: SFIGS. […] (SFIG. 6A) The body weight (left y-axis, solid symbols) and food intake (right y-axis, open symbols) measured in normal-diet-fed mice treated with vehicle or 2.5 mg/kg DG. (SFIG. 6B) Drug release curves of AD (upper panel) and IKA (lower panel) in PBS. […] (SFIG. 6F) Cells were treated with various doses DG, AD and IKA for 4 hours, and cell viability was measured immediately or after 72 hours. Dose response curves were simulated using ImageJ. (SFIG. 6G) H&E staining of heart, spleen and kidney sections from mice treated with DG, AD, IKA and their corresponding controls. Scale bar, 100 μm. (SFIG. 6H) H&E staining of liver and heart sections as well as ORO and p62/SQSTM1 IHC staining of liver sections from mice under fed and fast conditions with orally injected DG and intraperitoneally injected CQ, individually and jointly, or their corresponding control (Saline). Scale bar, 50 μm. (SFIG. 6I) The body weight of mice after the treatment described in SFIG. 6H. (SFIGS. 6J-L) Total serum levels of triglyceride, cholesterol and glucose of mice after the treatment described in SFIG. 6G.

The next test has as its system mTORC1. Briefly: TSC2 dependence of mTORC1 inhibition and TFEB activation in p53-/- and p53-/-, TSC2-/- MEFs. To be noted: p53-/- vs p53-/-. It is filed as cell-based, mouse.
In another test the test system is HeLa cells. Briefly: Cellular ROS level (CellROX Green). It is filed as cell-based, human. To be noted: 4 hrs. An excerpt:
SFIGS. 5A-I. Small-molecule activators of TFEB engage different sources of Ca. (SFIG. 5A) HeLa cells were pretreated with or without N-acetyl-cysteine (NAC) for 1 hr and then treated with tert-butyl hydroperoxide (TBHP) or AD for 4 hrs. TBHP and NAC were used as positive and negative controls. A ROS-sensitive DNA dye CellROX Green was used to detect cellular ROS levels after these treatments. Endogenous TFEB localization was also shown. (SFIG. 5B) Quantification of the fluorescent intensity of CellROX Green in cells treated as in a was done by a plate reader. (SFIG. 5C) Quantification of endogenous TFEB nuclear translocation in SFIG. 5A. (SFIG. 5D) Cells were pretreated with or without 25 μM IP3R inhibitor Xestosporine C (Xesto) for 1 hr and then treated with DG, AD and IKA for indicated time. Quantification of TFEB translocation was shown in SFIG. 5E-G (graphs represent mean±s.d. **p<0.01, ***p<0.001, ****p<0.0001). (SFIG. 5H-I) RNA-interference were used to knock down inositol […] receptor type 1 (IP3R1) in GFP-TFEB cells before they were treated with DG, AD and IKA. siLONRF1 was used as a negative control. TFEB translocation percentage was quantified from images as shown in SFIG. 5I (mean±s.d. for n=3 independent experiments, ****p<0.0001). Scale bar, 20 μm.

SMILES strings stand for the structures. Entries after “also recorded” stand apart in the source; their conditions may differ.

As for `NC(=O)c1ncn([C@@H]2O[C@H](COP(=O)(O)O)[C@@H](O)[C@H]2O)c1N` [AICAR, 5-aminoimidazole-4-carboxamide ribonucleotide, reference compound], the “TFEB nuclear accumulation by AMPK activators” value in the test on TFEB was “sufficient to induce TFEB nuclear accumulation”.

Take `C[C@@H]1C[C@@H]([C@H](O)CC2CC(=O)NC(=O)C2)C(=O)[C@@H](C)C1` [cycloheximide, reference compound]: the “hit status in the TFEB screen overlapping with the autophagy (GFP-LC3) screen” value with TFEB was “top 18 hits”.

For the molecule `CN(C)C(=N)N=C(N)N` [metformin, reference compound], the “TFEB nuclear accumulation by AMPK activators” value with TFEB is listed as “sufficient to induce TFEB nuclear accumulation”.

Turning to `CCN(CC)CCCC(C)Nc1ccnc2cc(Cl)ccc12` (stereo not shown) [CQ, chloroquine], the “fast-induced hepatic lipid accumulation” value in test [1] was “exacerbated”.

As to `C[C@@H]1O[C@@H](O[C@@H]2C=C3CC[C@@H]4[C@H](CC[C@]5(C)[C@@H](c6ccc(=O)oc6)CC[C@]45O)[C@@]3(C)CC2)[C@H](O)[C@H](O)[C@H]1O` [proscillaridin A, reference compound], the “hit status in the TFEB screen overlapping with the autophagy (GFP-LC3) screen” value in the test on TFEB is reported as “top 18 hits; also recorded: top scoring hits”. Further, the “dependence of mTORC1 inhibition / TFEB activation on TSC2” value in the test with mTORC1 is on record as “independent”.

`CC(C)(C)OO` [TBHP, tert-Butyl hydroperoxide, reference compound]: the ROS production result in the test on HeLa cells is “comparable ROS production”.

Values taken from US20200333357A1, “NOVEL TFEB PATHWAY AGONISTS FOR METABOLIC DISEASES AND AGEING” (The Board of Regents of the University of Texas System, priority 2017, published 2020).
